Test results: PMC4624771, “Oriented Cell Division in the C. elegans Embryo Is Coordinated by G-Protein Signaling Dependent on the Adhesion GPCR LAT-1” (PLoS Genetics, 2015)
Values belong to the molecule of their own block, whether it stands above or below them.

What was measured:
C. elegans embryos = test: Contact length ratio of ABala-MS to ABalp-MS in embryos; type: in vivo; settings: n = 11
Source text: (§1) Fig 2 Division plane defects in lat-1 mutant embryos are rescued by elevation of intracellular cAMP via a Gs protein/adenylyl cyclase pathway. […] In wild-type embryos treated with the RNAi control vector L4440 ABal divides in an anterior-posterior direction (A) whereas in treated lat-1 mutants the division plane is almost perpendicular to MS (B). gsa-1 RNAi by feeding over two generations leads to a turning of the F2 ABal division plane in a direction similar to that in lat-1 mutants (C). F2 lat-1; gsa-1(RNAi) embryos show a similar ABal division plane to lat-1 mutants (D). (E) Cell division plane angles of ABal relative to MS after knockdown of gsa-1. […] The vector L4440 served as negative control. Data are shown as means ± SD. * p < 0.05; *** p < 0.001; n ≥ 11. (F) cAMP levels are reduced in lat-1 embryos compared to a control wild-type population. cAMP levels were measured after lysis (15 μg protein) by cAMP accumulation assay. Assays were performed in three independent experiments, data are given as means ± SD. ** p < 0.01. […] Mothers and subsequently offspring of wild-type and lat-1 individuals were incubated and individuals reaching adulthood were scored (n = 410). […] Data were calculated from pixel analyses utilizing DIC images and are shown as means ± SD, ** p < 0.01. […]

[1] = tested on: cAMP levels in C. elegans embryos and adults; test: In vivo cAMP measurement in C. elegans embryos and adults; settings: cAMP accumulation assay after lysis
Source text: as §1

lat-1 mutants = test: Fertility rescue assay (brood size); type: in vivo, C. elegans; settings: 80 μM forskolin, independently of time and duration of drug application
Protocol: Supplementary file pgen.1005624.s004.tif: S3 Fig A cAMP-mediated signal is involved in the role of LAT-1 in cleavage plane orientation but not in fertility. (A) Fertility defects of lat-1 mutants are not rescued by treatment of hermaphrodites from embryonic stages to adulthood with 80 μM forskolin. Brood size was scored compared to untreated (mock), DMSO-treated (0.8%) and wild-type control. Data are given as means ± SD, n.s. not significant. […] (TIF) Click here for additional data file.
Ten L4 hermaphrodites were allowed to lay eggs on separate NGM plates containing 80 µM forskolin or respective solvent and seeded with OP50. Plates were incubated at 22 °C. Every 24 hours hermaphrodites were transferred onto fresh plates until egg-laying ceased and embryos were scored. Experiments were conducted at least in triplicate. Data were examined with an unpaired two-tailed t test for each genotype and condition, means are presented with SD.

lat-1(ok1465) nematodes = test: Lethality rescue assay in lat-1 mutant nematodes; type: in vivo
Source text: Fig 2 Division plane defects in lat-1 mutant embryos are rescued by elevation of intracellular cAMP via a Gs protein/adenylyl cyclase pathway. […] In wild-type embryos treated with the RNAi control vector L4440 ABal divides in an anterior-posterior direction (A) whereas in treated lat-1 mutants the division plane is almost perpendicular to MS (B). gsa-1 RNAi by feeding over two generations leads to a turning of the F2 ABal division plane in a direction similar to that in lat-1 mutants (C). F2 lat-1; gsa-1(RNAi) embryos show a similar ABal division plane to lat-1 mutants (D). (E) Cell division plane angles of ABal relative to MS after knockdown of gsa-1. […] The vector L4440 served as negative control. Data are shown as means ± SD. * p < 0.05; *** p < 0.001; n ≥ 11. (F) cAMP levels are reduced in lat-1 embryos compared to a control wild-type population. cAMP levels were measured after lysis (15 μg protein) by cAMP accumulation assay. Assays were performed in three independent experiments, data are given as means ± SD. ** p < 0.01. (G) Rescue of developmental lethality in lat-1 nematodes treated with compounds promoting cAMP accumulation: forskolin (80 μM), IBMX (10 mM) and 8-Br-cAMP (0.25 mM). Mothers and subsequently offspring of wild-type and lat-1 individuals were incubated and individuals reaching adulthood were scored (n = 410). As controls, nematodes were incubated in solvent without drug (mock). Data are shown as means ± SD. * p < 0.05; ** p < 0.01; *** p < 0.001. (H) Forskolin increases cAMP levels in C. elegans embryos and adults. lat-1 mutants and subsequently embryos were incubated with 80 μM forskolin. […] As controls, nematodes were treated with 0.8% DMSO lacking forskolin (mock). Basal cAMP levels of mock control are: 0.70 ± 0.14 nM (wild-type embryos); 0.37 ± 0.19 nM (lat-1 embryos); 1.9 ± 0.7 nM (wild-type adults); 2.3 ± 0.8 nM (lat-1 adults). Assays were performed in three independent experiments, data are given as means ± SD. * p < 0.05; ** p < 0.01; *** p < 0.001. (I-L) Relative positions of ABala, ABalp, and MS in an AB^4 embryo. Schematic representation (top) and DIC microscopy (bottom), scale bars = 10 μm. In wild-type embryos (I) and embryos incubated in 80 μM forskolin for 120 minutes (K) ABal divides in an anterior-posterior direction with only ABalp forming an interface with MS. In lat-1 mutants the division plane is skewed resulting in ABala and ABalp contacting MS (J). lat-1 embryos treated with 80 μM forskolin for 120 minutes display wild-type division and cell interfaces (L). (M) Arrangement of blastomeres in the 12-cell stage embryo. […] The right-hand side is two views of the mean positions of the blastomeres. The spheres are enlarged to convey an impression of the contacts. Forskolin turns the ABal spindle in the mutant in a more anterior direction. (N) Cell division plane angles of ABal relative to MS of untreated wild-type/lat-1 controls and wild-type/lat-1 embryos after incubation of mothers and subsequently embryos for 48 hours in 80 μM forskolin. Upon forskolin treatment, mutant embryos display a wild-type division angle. As controls, nematodes were treated with 0.8% DMSO lacking forskolin (mock). Data are shown as average angles ± SD, *** p < 0.001; n ≥ 12. (O) Forskolin reduces the contact length of ABala to MS. Ratio of relative contact lengths of ABala to MS and ABalp to MS cells lat-1 embryos untreated (control, n = 10) and after incubation of mothers and subsequently embryos for 48 hours in 80 μM forskolin (n = 11). […] Data were calculated from pixel analyses utilizing DIC images and are shown as means ± SD, ** p < 0.01.
All compounds were obtained from Sigma Aldrich. Forskolin was dissolved in DMSO to 10 mM, 3-isobutyl-1-methylxanthine (IBMX) in Dent´s buffer to 10 mM, 8-bromoadenosine 3′,5′-cyclic monophosphate (8-Br-cAMP) in 1 N ammonium hydroxide to 250 mM and 2',5'-dideoxyadenosine (ddA) was diluted in DMSO to 100 mM prior to final dilution in Dent´s buffer. […]

[2] = molecular target: rat latrophilin LPHN1 (ADGRL1) (rat) (UniProt O88917)
UniProt O88917, sequence (O88917 25-1515): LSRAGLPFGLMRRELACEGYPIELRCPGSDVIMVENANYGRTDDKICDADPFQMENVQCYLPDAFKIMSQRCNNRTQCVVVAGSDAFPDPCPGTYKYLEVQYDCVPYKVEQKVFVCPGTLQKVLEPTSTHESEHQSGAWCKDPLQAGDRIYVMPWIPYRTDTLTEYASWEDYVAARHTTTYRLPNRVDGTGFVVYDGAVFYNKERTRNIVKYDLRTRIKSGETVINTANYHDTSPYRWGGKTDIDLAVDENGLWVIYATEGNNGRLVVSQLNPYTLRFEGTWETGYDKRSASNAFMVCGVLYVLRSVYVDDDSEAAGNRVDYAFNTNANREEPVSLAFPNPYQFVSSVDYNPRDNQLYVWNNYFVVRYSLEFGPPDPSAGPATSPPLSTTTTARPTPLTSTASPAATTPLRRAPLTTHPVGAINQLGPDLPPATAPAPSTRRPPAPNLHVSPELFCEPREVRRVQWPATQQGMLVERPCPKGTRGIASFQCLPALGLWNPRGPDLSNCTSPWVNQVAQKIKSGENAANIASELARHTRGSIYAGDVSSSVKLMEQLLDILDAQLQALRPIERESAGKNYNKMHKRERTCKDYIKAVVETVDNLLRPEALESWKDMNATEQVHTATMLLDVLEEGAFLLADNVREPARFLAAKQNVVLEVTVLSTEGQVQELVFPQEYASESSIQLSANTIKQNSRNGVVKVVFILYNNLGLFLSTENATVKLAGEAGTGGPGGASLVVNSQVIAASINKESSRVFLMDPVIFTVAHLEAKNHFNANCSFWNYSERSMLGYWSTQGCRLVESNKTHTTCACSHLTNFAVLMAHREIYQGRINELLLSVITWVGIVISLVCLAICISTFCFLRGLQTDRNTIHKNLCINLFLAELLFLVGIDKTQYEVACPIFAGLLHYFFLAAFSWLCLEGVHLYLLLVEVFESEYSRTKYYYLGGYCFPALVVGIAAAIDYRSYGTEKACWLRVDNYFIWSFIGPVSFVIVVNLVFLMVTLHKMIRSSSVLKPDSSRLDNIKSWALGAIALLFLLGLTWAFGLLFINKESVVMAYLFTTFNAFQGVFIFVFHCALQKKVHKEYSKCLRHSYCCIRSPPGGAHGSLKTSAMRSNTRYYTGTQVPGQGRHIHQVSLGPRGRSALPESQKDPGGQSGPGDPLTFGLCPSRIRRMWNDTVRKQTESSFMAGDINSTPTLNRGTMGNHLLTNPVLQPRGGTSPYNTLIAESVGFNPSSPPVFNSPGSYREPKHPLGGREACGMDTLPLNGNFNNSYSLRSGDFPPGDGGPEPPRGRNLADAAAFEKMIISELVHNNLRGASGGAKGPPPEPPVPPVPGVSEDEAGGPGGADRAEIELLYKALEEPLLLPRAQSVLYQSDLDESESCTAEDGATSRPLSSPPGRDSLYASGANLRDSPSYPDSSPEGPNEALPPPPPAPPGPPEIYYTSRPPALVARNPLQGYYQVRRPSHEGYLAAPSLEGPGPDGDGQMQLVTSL

lat-1 mutant embryos = test: Embryonic lethality after adenylyl cyclase inhibition, lat-1 mutants; type: in vivo, C. elegans; settings: 1 mM ddA vs 1% DMSO mock; n > 520
Protocol: (§2) All compounds were obtained from Sigma Aldrich. Forskolin was dissolved in DMSO to 10 mM, 3-isobutyl-1-methylxanthine (IBMX) in Dent´s buffer to 10 mM, 8-bromoadenosine 3′,5′-cyclic monophosphate (8-Br-cAMP) in 1 N ammonium hydroxide to 250 mM and 2',5'-dideoxyadenosine (ddA) was diluted in DMSO to 100 mM prior to final dilution in Dent´s buffer. Peptides were synthesized (see Supporting Experimental Procedures) and dissolved in DMSO to 100 mM prior to final dilution in M9. Worms were incubated in 80 μM forskolin, 10 mM IBMX, 0.25 mM 8-Br-cAMP, 1 mM ddA or 0.1 mM peptide solution, respectively, containing E. coli OP50.
(§3) Supplementary file pgen.1005624.s005.tif: S4 Fig Inhibition of adenylyl cyclases in wild-type hermaphrodites partially mimics the lat-1 phenotype. […] Note that this effect might be not fully penetrant due potential difficulties in drug accessibility. As controls, nematodes were treated with 1% DMSO lacking ddA (mock). Individuals surviving embryogenesis were scored (n > 520). Data are given as means ± SD. n.s. not significant; *** p < 0.001. (TIF) Click here for additional data file.

wild-type embryos = test: Embryonic lethality after adenylyl cyclase inhibition, wild-type; type: in vivo, C. elegans; settings: adult hermaphrodites and subsequently very early embryos, 1 mM ddA vs 1% DMSO mock; n > 520
Protocol: as §2, §3

[3] = molecular target: T1, C. elegans latrophilin homolog LAT-1 (C. elegans) (UniProt G5EDW2)
T1 sequence: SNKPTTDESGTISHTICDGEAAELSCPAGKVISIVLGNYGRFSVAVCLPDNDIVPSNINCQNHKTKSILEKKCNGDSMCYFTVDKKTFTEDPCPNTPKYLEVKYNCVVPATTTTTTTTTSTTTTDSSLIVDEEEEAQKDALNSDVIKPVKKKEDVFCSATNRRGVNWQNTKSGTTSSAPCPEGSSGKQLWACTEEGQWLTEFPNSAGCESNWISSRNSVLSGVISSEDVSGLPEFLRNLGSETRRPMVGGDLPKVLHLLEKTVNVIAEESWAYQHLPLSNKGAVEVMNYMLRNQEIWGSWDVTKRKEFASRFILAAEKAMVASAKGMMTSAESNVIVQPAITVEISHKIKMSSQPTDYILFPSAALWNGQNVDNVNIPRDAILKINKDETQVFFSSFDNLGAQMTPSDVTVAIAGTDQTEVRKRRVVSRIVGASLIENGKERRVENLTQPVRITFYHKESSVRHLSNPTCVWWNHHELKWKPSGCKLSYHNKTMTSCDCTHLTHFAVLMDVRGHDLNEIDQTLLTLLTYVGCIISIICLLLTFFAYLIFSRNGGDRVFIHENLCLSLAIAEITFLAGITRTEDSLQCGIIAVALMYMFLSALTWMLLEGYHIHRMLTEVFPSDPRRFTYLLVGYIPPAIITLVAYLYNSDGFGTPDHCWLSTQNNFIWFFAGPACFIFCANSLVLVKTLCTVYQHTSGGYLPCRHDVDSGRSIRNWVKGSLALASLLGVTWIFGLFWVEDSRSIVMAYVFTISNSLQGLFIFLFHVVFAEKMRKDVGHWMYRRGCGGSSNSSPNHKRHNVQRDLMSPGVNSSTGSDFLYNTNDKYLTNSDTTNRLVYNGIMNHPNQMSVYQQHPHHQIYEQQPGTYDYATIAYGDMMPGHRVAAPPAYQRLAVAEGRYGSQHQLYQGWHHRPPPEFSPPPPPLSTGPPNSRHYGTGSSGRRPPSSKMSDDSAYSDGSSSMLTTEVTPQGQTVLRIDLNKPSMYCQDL

- cAMP accumulation (ALPHAScreen) in COS-7 cells transfected with rat LPHN1 and stimulated with 1 mM peptide, fold over basal [2]: 2.3 fold
Molecule: RP13, peptide of 13 amino acids C-terminal of the rat LPHN1 GPS cleavage site

- cAMP accumulation (ALPHAScreen) in lat-1-transfected COS-7 cells stimulated with 1 mM peptide, fold over basal [3]: 1.6 fold
Molecule: THFAVLMDVRGH [CP12, peptide of 12 amino acids C-terminal of the LAT-1 GPS cleavage site]

Second part, the molecule before the results:

Molecule: C=C[C@@]1(C)CC(=O)[C@]2(O)[C@@]3(C)[C@@H](O)CCC(C)(C)[C@@H]3[C@H](O)[C@H](OC(C)=O)[C@@]2(C)O1 [forskolin]
- contact of ABala to MS in wild-type embryos, in words (C. elegans embryos; forskolin-treated wild-type embryos, 80 μM): does not contact MS
- contact of ABala to MS in lat-1 embryos, in words (C. elegans embryos; lat-1 embryos, mothers and subsequently embryos 48 hours in 80 μM forskolin, untreated ratio 0.72 ± 0.03): strongly reduced
- cAMP levels in embryos, in words ([1]; lat-1 mutants and subsequently embryos incubated with 80 μM forskolin vs 0.8% DMSO mock): increase in cAMP levels
- cAMP in hermaphrodites, in words ([1]; wild-type and lat-1 hermaphrodites (L4 stage), 80 μM forskolin 48 hours vs 0.8% DMSO mock): elevated cAMP
- rescue of reduced brood size of lat-1 mutants, in words (lat-1 mutants): did not detect any rescue
- effect on embryonic lethality of lat-1 worms, in words (lat-1(ok1465) nematodes; L4 larvae and subsequently embryos incubated, forskolin 80 μM, IBMX 10 mM, 8-Br-cAMP 0.25 mM): amelioration of embryonic lethality
- time point of drug application needed for rescue of developmental lethality, in words (lat-1(ok1465) nematodes; lat-1 mutants, 80 μM forskolin): only when adding forskolin to the mother or the very early embryonic stages
- survival rate (individuals reaching adulthood) (lat-1(ok1465) nematodes; lat-1 worms, mothers (L4) and subsequently offspring incubated in 80 μM forskolin, untreated 33%): 73%
- effect of concentrations higher than 80 μM on C. elegans, in words (lat-1(ok1465) nematodes; various concentrations tested): higher concentrations were detrimental
- concentration with optimal effect (lat-1(ok1465) nematodes; various concentrations tested on C. elegans): 80 µM

Molecule: C[C@H]1O[C@@H](n2cnc3c(N)ncnc32)C[C@@H]1O [ddA, 2',5'-dideoxyadenosine]
- embryonic lethality in lat-1 mutant embryos, in words (lat-1 mutant embryos): not in lat-1 mutant embryos
- embryonic lethality in wild-type, in words (wild-type embryos): specific embryonic lethality
